These results are taken from patent US5194379A, “Microbial transformation process for the preparation of hydroxylanol imidazo (4,5-b) pyridines useful as angiotensin II receptor antagonists” (Merck & Co., Inc., priority 1991, dated 1993).

The experiment concerns the target T1, Angiotensin II (A II) receptor (Oryctolagus cuniculus, UniProt P34976).
T1 sequence (P34976 1-359): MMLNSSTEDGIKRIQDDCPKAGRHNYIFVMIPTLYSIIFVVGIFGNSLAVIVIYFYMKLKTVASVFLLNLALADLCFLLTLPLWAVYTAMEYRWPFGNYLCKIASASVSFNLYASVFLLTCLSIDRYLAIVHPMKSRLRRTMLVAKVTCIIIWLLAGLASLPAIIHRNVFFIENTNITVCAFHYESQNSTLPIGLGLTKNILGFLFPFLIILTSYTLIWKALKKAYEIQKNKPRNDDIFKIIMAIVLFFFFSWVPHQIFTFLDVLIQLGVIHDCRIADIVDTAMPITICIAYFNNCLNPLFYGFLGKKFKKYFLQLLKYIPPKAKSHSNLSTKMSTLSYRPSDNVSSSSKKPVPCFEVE
The experiment can be described thus: Receptor Binding Assay Using Rabbit Aortae Membrane Preparation (displacement of 125I-Sar1Ile8-angiotensin II). On the procedure:
This assay is also referred to herein as the "IC50 " assay.
Receptor Binding Assay Using Rabbit Aortae Membrane Preparation
Three frozen rabbit aortae (obtained from Pel-Freeze Biologicals) were suspended in 5 mM Tris-0.25M Sucrose, pH 7.4 buffer (50 ml) homogenized, and then centifuged. The mixture was filtered through a cheesecloth and the supernatant was centrifuged for 30 minutes at 20,000 rpm at 4° C. The pellet thus obtained was resuspended in 30 ml of 50 mM Tris-5 mM MgCl2 buffer containing 0.2% Bovine Serum Albumin and 0.2 mg/ml Bacitration and the suspension was used for 100 assay tubes. Samples tested for screening were done in duplicate. To the membrane preparation (0.25 ml) there was added ^125 I-Sar^1 Ile^8 -angiotensin II [obtained from New England Nuclear] (10 ul; 20,000 cpm) with or without the test sample and the mixture was incubated at 37° C. for 90 minutes. The mixture was then diluted with ice-cold 50 mM Tris---0.9% NaCl, pH 7.4 (4 ml) and filtered through a glass fiber filter (GF/B Whatman 2.4" diameter). The filter was soaked in scintillation cocktail (10 ml) and counted for radioactivity using Packard 2260 Tricarb liquid scintillation counter. […]
On the technique in general: In a radioligand displacement assay an active substance lowers the binding of a labelled ligand.

With `CCc1nc2c(C)cc(CO)nc2n1Cc1ccc(-c2ccccc2-c2nnn[nH]2)cc1` [compound (I)], the “A II antagonist activity by the IC50 assay (in words)” value was “exhibit A II antagonist activity”. For `CCc1nc2c(CO)cc(C)nc2n1Cc1ccc(-c2ccccc2-c2nnn[nH]2)cc1` [compound (II)] the value was “exhibit A II antagonist activity”.
